Key:
[1] = system: Bursaphelenchus xylophilus; assay: Occurrence of pine wilt disease after trunk injection of induced resistance candidate materials, in vivo test in young red pine trees; conditions: red pine tree (Pinus densiflora), trunk injection 100 µℓ per tree, 30 days after inoculation
Experimental: By using the 15 types of an induced resistance elicitors which have been known to induce the plant resistance against various diseases as candidates, their controlling effect against pine wilt disease was examined. The control efficacy of candidates against pine wilt disease was analyzed according to an in vivo test using red pine tree (Pinus densiflora) which was 2-year old young pine trees (diameter of 5.5 mm or so, and height of about 35 mm).
As a candidate group of an induced resistance material, two kinds of acibenzolar-S-methyl (ASM), TDL (Tiadinil), ITL (Isotianil), PBZ (Probenzole), AZO (Azoxystrobin), VMA (Validamycin A), MeJA (Methyl jasmonate), BABA (DL-3-aminobutyric acid), 2,3-BDO (2,3-Butanediol), SA (salicyclic acid), GABA (r-Aminobutyric acid), glucan (Glucan), ER (Ergosterol), and AZA (Azelaic acid) were used. Only the use of acibenzolar-S-methyl is according to the invention. Injection of the chemicals was carried out by trunk injection method, i.e., at an angle of 45°, a borehole was created by using an electric drill with thickness of 1.5 mm on a pine stem part that is 5 to 10 cm above the soil surface, a tip (200 µℓ) was inserted to the hole, and, after dissolving the candidate material at concentration level of 200, 20, or 2 µg/mℓ in each solvent, the solution was injected in an amount of 100 µℓ per pine tree. After the injection of the chemical agent, the end part of the tip was sealed with parafilm.
The pine tree wilt nematodes (Bursaphelenchus xylophilus, National Institute of Forest Science (NIFoS), South Korea) was incubated at 25°C by feeding them with Botrytis cinerea, which have been cultured on a potato dextrose agar (PDA) medium, and after one week incubation, they were collected by Baermann funnel method and were adjusted to the level of 20,000 worms/mℓ by examining the number of the worms under an optical microscope. One week after the chemical treatment, the inoculation of the pine tree wilt nematodes was carried out by tree barking inoculation of 100 µℓ, i.e., 2,000 worms, per tree, and the result was determined 30 days after the inoculation. […] [Table 1] Occurrence rate of pine wilt disease in candidate group of induced resistance materials

[2] = system: Bursaphelenchus xylophilus; assay: In vitro nematicidal activity, 96-well microplate; conditions: after 3 days
Experimental: To test the nematicidal activity of acibenzolar-S-methyl, a suspension of Bursaphelenchus xylophilus was diluted in a 96-well microplate to have 50 worms/99 µℓ in each well and used for the treatment. […] Each treatment was repeated 3 times, and "A Pharm" (emamectin benzoate, 2.15%), which is a chemical pesticide, was used as a control group. After the treatment, the 96-well plate was kept in a plastic box having water-soaked wipes spread on the bottom to maintain 100% humidity, and, after covering the box with black cloth, the box was stored in a dark state with blockage of light. The observation was made after 3 days. […] [Table 2] Nematicidal activity of acibenzolar-S-methyl against Bursaphelenchus xylophilus

[3] = system: Bursaphelenchus xylophilus; assay: Control efficacy against pine wilt disease by trunk injection, foliar spraying or soil drenching, greenhouse, red pine trees; type: in vivo; conditions: red pine tree, observed for 80 days
Experimental: The control efficacy of acibenzolar-S-methyl, which shown to have the highest activity in Example 1, was determined by three different treatment methods, i.e., trunk injection, foliar spraying, and soil drenching. For in vivo pathogenesis test, 2-year old young red pine trees (diameter of 5.5 mm or so, and height of about 35 mm) were used like Example 2.
For the trunk injection, a borehole was created at an angle of 45° by using an electric drill with thickness of 1.5 mm on a pine stem part that is 5 to 10 cm above the soil surface, a tip (200 µℓ) was inserted to the hole, and the working solution of chemicals was injected in an amount of 100 µℓ per pine tree after dissolving acibenzolar-S-methyl at concentration of 0.2 or 10 mg/mℓ in an aqueous solution containing 10% acetone and 10% methanol. After the treatment, the end part of the tip was sealed with parafilm, and a small hole was created thereon as an airflow hole. For the foliar spraying, a pre-treatment with Tween 20 (250 µg/mℓ) was carried out at 5 mℓ per pine tree to help the adsorption of the chemical on pine leaves, followed by drying for 2 hours. After drying, acibenzolar-S-methyl was dissolved at concentration of 1.6 mg/mℓ in an aqueous solution containing 10% acetone and Tween 20 (250 µg/mℓ) and the dissolved solution was filled in microsprayer and was applied 5 mℓ per pine tree by foliar spraying. For the soil drenching, acibenzolar-S-methyl was dissolved at concentration level of 0.2 mg/mℓ in an aqueous solution containing 10% acetone and Tween 20 (250 µg/mℓ), and this solution was used for soil drenching in a pot with planted pine tree, 40 mℓ per pine tree. […] [Table 3] The control efficacy of acibenzolar-S-methyl against pine wilt disease by various treatment methods

[4] = system: Bursaphelenchus xylophilus; assay: as above; type: in vivo; conditions: red pine tree, Trunk injection, 20,000 µg/mℓ, observed for 80 days
[5] = Foliar spraying, 1,600 µg/mℓ, 5 mℓ per tree
[6] = Soil drenching, 200 µg/mℓ, 40 mℓ per tree

Molecule	Occurrence rate of pine wilt disease: Number of pine trees showing wilt symptoms / Number of pine trees used for the test ([1]; 2 µg/mℓ)	Occurrence rate of pine wilt disease: Number of pine trees showing wilt symptoms / Number of pine trees used for the test ([1]; 20 µg/mℓ)	Occurrence rate of pine wilt disease: Number of pine trees showing wilt symptoms / Number of pine trees used for the test ([1]; 200 µg/mℓ)	Nematicidal rate (%) ([2]; 0.11 µg/mℓ)	Nematicidal rate (%) ([2]; 0.33 µg/mℓ)	Nematicidal rate (%) ([2]; 1 µg/mℓ)	Control value (%) [3, 5] [%]	Disease occurrence rate (%) [3, 5] [%]	Control value (%) ([3]; Foliar spraying, 1,600 µg/mℓ, 5 mℓ per tree, listed as emamectin benzoate)	Control value (%) [3, 6] [%]	Disease occurrence rate (%) [3, 6] [%]	Control value (%) ([3]; Soil drenching, 200 µg/mℓ, 40 mℓ per tree, listed as emamectin benzoate)	Control value (%) ([3]; Trunk injection, 200 µg/mℓ)	Disease occurrence rate (%) ([3]; Trunk injection, 200 µg/mℓ)	Control value (%) ([3]; Trunk injection, 200 µg/mℓ, listed as emamectin benzoate)	Control value (%) [4] [%]	Disease occurrence rate (%) [4] [%]
O=C(O)c1ccccc1O [SA, salicyclic acid]	2/3	1/3	0/3	–	–	–	–	–	–	–	–	–	–	–	–	–	–
emamectin benzoate	–	–	–	98.77	100	100	10	64	no control activity	1	70	no control activity	7	66	not shown at all	100	0

Source: patent EP3685668B1, “COMPOSITION COMPRISING ACIBENZOLAR-S-METHYL AS EFFECTIVE INGREDIENT FOR CONTROLLING BURSAPHELENCHUS XYLOPHILUS DISEASE AND METHOD FOR CONTROLLING BURSAPHELENCHUS XYLOPHILUS USING SAME” (Industry Foundation of Chonnam National University, priority 2017, dated 2019)
